According to publication PMC4234439 (Journal of Medicinal Chemistry, 2014):
Each block holds one molecule with its values, some of them ahead of it.

Key:
[1] = plasma protein binding by ultracentrifugation; assay type: in vitro ADME; settings: 37 °C
[2] = plasma exposure in Swiss mice; assay type: in vivo, Swiss outbred mice; settings: oral 10 mg/kg, PEG400 suspension, comparison in words
[3] = human liver microsomal stability; assay type: in vitro ADME; settings: liver microsomes, intrinsic clearance (CLint)
[4] = system: P. falciparum strain TM90-C2B (chloroquine, mefloquine, pyrimethamine, and atovaquone resistant); experiment: microbe, parasite or virus in culture; settings: Plasmodium falciparum, TM90, read-out: EC50 (nM) TM90-C2B
[5] = system: P. berghei-GFP parasites; assay type: in vivo, Plasmodium berghei; settings: for animals cured: Thompson test, 10 mg/kg, five mice per group

Structure (SMILES): COc1cc2[nH]c(C)c(-c3ccc(Oc4ccc(OC(F)(F)F)cc4)cc3F)c(=O)c2cc1Cl [Compound 7]
- binding to plasma proteins [1]: > 99%
- plasma exposure [2]: highest exposure

Structure (SMILES): COc1cc2[nH]c(C)c(-c3ccc(N4CCN(C)CC4)nc3)c(=O)c2cc1Cl [Compound 24, 6-Chloro-7-methoxy-2-methyl-3-(6-(4-methylpiperazin-1-yl)pyridin-3-yl)quinolin-4(1H)-one]
- EC50 [4]: ≥ 536 nM

Structure (SMILES): COc1cc2[nH]c(C)c(-c3cc4ccccc4s3)c(=O)c2cc1Cl [Compound 30, 3-(Benzo[b]thiophen-2-yl)-6-chloro-7-methoxy-2-methylquinolin-4(1H)-one]
- EC50 [4]: 24.8 to 138 nM

Structure (SMILES): COc1cc2[nH]c(C)c(-c3ccc(Oc4ccc(OC(F)(F)F)cc4)cc3C)c(=O)c2cc1Cl [Compound 62, 6-Chloro-7-methoxy-2-methyl-3-(2-methyl-4-(4-(trifluoromethoxy)phenoxy)phenyl)-quinolin-4(1H)-one]
- animals cured [5]: two out of five

Structure (SMILES): COc1cc2[nH]c(C)c(-c3ccc(-c4ccc(C(F)(F)F)cc4F)nc3)c(=O)c2cc1Cl [Compound 66, 6-Chloro-3-(6-(2-fluoro-4-(trifluoromethyl)phenyl)pyridin-3-yl)-7-methoxy-2-methylquinolin-4(1H)-one]
- plasma exposure [2]: slightly lower exposure

Structure (SMILES): COc1cc2[nH]c(C)c(-c3ccc(-c4ccc(OC(F)(F)F)cc4)nc3)c(=O)c2cc1Cl [Compound 67, 6-Chloro-7-methoxy-2-methyl-3-(6-(4-(trifluoromethoxy)phenyl)pyridin-3-yl)quinolin-4(1H)-one]
- plasma exposure [2]: slightly lower exposure
- animals cured [5]: cured all the mice

Structure (SMILES): O=C1C(O)=C([C@H]2CC[C@H](c3ccc(Cl)cc3)CC2)C(=O)c2ccccc21 [atovaquone, reference compound]
- survival ([5]; days survived beyond untreated control, 50 mg/kg p.o. days 3–5 PE): 23 days

The remaining lines, values ahead:

- microsomal CLint at 1 μM [3]: < 15 µL/min/mg
Structure (SMILES): COc1cc2[nH]c(C)c(-c3cccnc3)c(=O)c2cc1Cl [Compound 20, 6-Chloro-7-methoxy-2-methyl-3-(pyridin-3-yl)quinolin-4(1H)-one]

- microsomal CLint at 1 μM [3]: < 15 µL/min/mg
Structure (SMILES): COc1cc2[nH]c(C)c(-c3ccncc3)c(=O)c2cc1Cl [Compound 21, 6-Chloro-7-methoxy-2-methyl-3-(pyridin-4-yl)quinolin-4(1H)-one]

- microsomal CLint at 1 μM [3]: 19 µL/min/mg
Structure (SMILES): COc1cc2[nH]c(C)c(-c3ccc(Oc4ccccc4)cc3)c(=O)c2cc1Cl [Compound 46, 6-Chloro-7-methoxy-2-methyl-3-(4-phenoxyphenyl)quinolin-4(1H)-one]

- plasma exposure [2]: substantially lower
Structure (SMILES): COc1cc2[nH]c(C)c(-c3ccc(C(F)(F)F)cc3)c(=O)c2cc1Cl [Compound 52, 6-Chloro-7-methoxy-2-methyl-3-(4-(trifluoromethyl)phenyl)quinolin-4(1H)-one]
